Measured values reported in ChEMBL document CHEMBL2073927, “ABCG2 transports sulfated conjugates of steroids and xenobiotics” (J Biol Chem, 2003).
Structures can show the parent of a compound that is named as a salt.

How the values were obtained:
[1] = molecular target: T1, Broad substrate specificity ATP-binding cassette transporter ABCG2 (Homo sapiens, UniProt Q9UNQ0); test: (§1) TP_TRANSPORTER: uptake (vesicle) in membrane vesicles from ABCG2-expressing P388 cells; assay type: functional, cell membranes; settings: mouse
T1 sequence (Q9UNQ0 whole entry): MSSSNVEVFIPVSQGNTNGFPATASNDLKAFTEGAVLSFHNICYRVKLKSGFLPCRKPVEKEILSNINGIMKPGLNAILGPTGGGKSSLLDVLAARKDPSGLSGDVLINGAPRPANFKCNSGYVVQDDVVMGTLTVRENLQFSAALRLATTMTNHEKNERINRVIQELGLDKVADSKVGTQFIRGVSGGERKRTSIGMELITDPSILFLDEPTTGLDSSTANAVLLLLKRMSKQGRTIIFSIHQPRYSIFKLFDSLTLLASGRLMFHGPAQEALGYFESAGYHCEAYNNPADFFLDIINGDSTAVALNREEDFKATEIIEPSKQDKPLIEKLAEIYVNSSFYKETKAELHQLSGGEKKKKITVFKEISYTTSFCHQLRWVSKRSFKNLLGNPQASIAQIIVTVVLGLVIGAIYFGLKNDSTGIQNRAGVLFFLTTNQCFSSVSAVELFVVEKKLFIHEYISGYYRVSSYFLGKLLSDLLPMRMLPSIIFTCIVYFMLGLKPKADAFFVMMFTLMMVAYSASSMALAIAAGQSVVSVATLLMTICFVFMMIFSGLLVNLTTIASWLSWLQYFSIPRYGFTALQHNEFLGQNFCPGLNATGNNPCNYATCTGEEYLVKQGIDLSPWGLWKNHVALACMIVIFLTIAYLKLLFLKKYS

[2] = molecular target: T2, ABCG2 (Homo sapiens, UniProt Q9UNQ0); test: TP_TRANSPORTER: inhibition of E1S uptake by 2.4-dinitrophenyl-S-glutathione at a concentration of 80uM in membrane vesicles from ABCG2-expressing P388 cells; assay type: functional, cell membranes, Membrane vesicle; parameters: scale not given: the % may be the effect or the level left; settings: mouse, probe E1S, read-out: Activity
T2 sequence (Q9UNQ0 whole entry): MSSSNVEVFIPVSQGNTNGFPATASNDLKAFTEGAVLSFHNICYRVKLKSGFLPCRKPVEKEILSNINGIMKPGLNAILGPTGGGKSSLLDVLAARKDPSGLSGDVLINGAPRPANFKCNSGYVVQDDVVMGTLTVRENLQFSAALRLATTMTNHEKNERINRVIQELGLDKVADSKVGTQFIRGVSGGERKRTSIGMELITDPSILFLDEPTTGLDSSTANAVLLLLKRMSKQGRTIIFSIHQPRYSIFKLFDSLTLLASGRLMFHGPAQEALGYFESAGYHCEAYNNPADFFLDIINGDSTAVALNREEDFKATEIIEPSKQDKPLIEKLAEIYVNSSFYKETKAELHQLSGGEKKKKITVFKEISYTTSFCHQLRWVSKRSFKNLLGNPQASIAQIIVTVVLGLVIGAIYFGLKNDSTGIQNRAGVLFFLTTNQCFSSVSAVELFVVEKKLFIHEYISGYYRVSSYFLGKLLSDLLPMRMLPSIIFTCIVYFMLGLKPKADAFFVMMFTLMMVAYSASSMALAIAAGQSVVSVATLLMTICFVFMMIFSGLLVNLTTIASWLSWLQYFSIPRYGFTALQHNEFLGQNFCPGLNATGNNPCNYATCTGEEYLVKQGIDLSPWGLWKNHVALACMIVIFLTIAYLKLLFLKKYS

[3] = molecular target: T2, ABCG2; test: TP_TRANSPORTER: inhibition of E1S uptake by 4-Methylumbelliferone glucuronide at a concentration of 500uM in membrane vesicles from ABCG2-expressing P388 cells; assay type: functional, cell membranes, Membrane vesicle; parameters: scale not given: the % may be the effect or the level left; settings: mouse, probe E1S, read-out: Activity
[4] = molecular target: T2, ABCG2; test: TP_TRANSPORTER: inhibition of E1S uptake by Doxorubicin at a concentration of 1000uM in membrane vesicles from ABCG2-expressing P388 cells; assay type: functional, cell membranes, Membrane vesicle; parameters: scale not given: the % may be the effect or the level left; settings: mouse, probe E1S, read-out: Activity
[5] = molecular target: T1, Broad substrate specificity ATP-binding cassette transporter ABCG2; test: TP_TRANSPORTER: inhibition of E1S uptake by 6-hydroxy-5,7-dimetyl-2-metylamino-4-(3-pyridylmethyl) benzothiazole glucronid at a concentration of 250uM in membrane vesicles from ABCG2-expressing P388 cells; assay type: functional, cell membranes, Membrane vesicle; parameters: scale not given: the % may be the effect or the level left; settings: mouse, p388, 250 µM
[6] = molecular target: T2, ABCG2; test: TP_TRANSPORTER: inhibition of E1S uptake by Estrone at a concentration of 200uM in membrane vesicles from ABCG2-expressing P388 cells; assay type: functional, cell membranes, Membrane vesicle; parameters: scale not given: the % may be the effect or the level left; settings: mouse, probe E1S, read-out: Activity
[7] = molecular target: T2, ABCG2; test: TP_TRANSPORTER: inhibition of E1S uptake by Pravastatin at a concentration of 200uM in membrane vesicles from ABCG2-expressing P388 cells; assay type: functional, cell membranes, Membrane vesicle; parameters: scale not given: the % may be the effect or the level left; settings: mouse, probe E1S, read-out: Activity
[8] = substrate: C[C@]12CC[C@@H]3c4ccc(OS(=O)(=O)O)cc4CC[C@H]3[C@@H]1CCC2=O; test: as §1; assay type: functional, cell membranes
[9] = substrate: CNc1nc2c(Cc3cccnc3)c(C)c(OS(=O)(=O)O)c(C)c2s1; test: as §1; assay type: functional, cell membranes
[10] = substrate: Cc1cc(=O)oc2cc(OS(=O)(=O)O)ccc12; test: TP_TRANSPORTER: uptake (vesicle) in membrane vesicle from ABCG2-expressing mouse lymphoma(P388)cells; assay type: functional, cell membranes

With `Cc1cc(=O)oc2cc(OS(=O)(=O)O)ccc12` the Activity [1] was “substrate []”.

With `N[C@@H](CCC(=O)N[C@H](CSc1ccc([N+](=O)[O-])cc1[N+](=O)[O-])C(=O)NCC(=O)O)C(=O)O` the Activity [1] was “substrate []” and the activity at 80 µM [2] was 78%.

`O=C(O)[C@H]1O[C@@H](OCc2cc(=O)oc3cc(O)ccc23)[C@H](O)[C@@H](O)[C@@H]1O` was tested, and the Activity [1] was “substrate []” and the activity at 500 µM [3] was 84%.

For `COc1cccc2c1C(=O)c1c(O)c3c(c(O)c1C2=O)C[C@@](O)(C(=O)CO)C[C@@H]3O[C@H]1C[C@H](N)[C@H](O)[C@H](C)O1` [DOXORUBICIN], the activity at 1000 µM [4] was 72%.

`CNc1nc2c(Cc3cccnc3)c(C)c(O[C@@H]3O[C@H](C(=O)O)[C@@H](O)[C@H](O)[C@H]3O)c(C)c2s1` [E3040 GLUCURONIDE] was tested, and the Activity [1] was “substrate []” and the Activity [5] was 76%.

For `CNc1nc2c(Cc3cccnc3)c(C)c(OS(=O)(=O)O)c(C)c2s1` [E3040 SULFATE], the Activity [1] was “substrate []”.

In the case of `C[C@]12CC[C@@H]3c4ccc(O)cc4CC[C@H]3[C@@H]1CC[C@@H]2O[C@@H]1O[C@H](C(=O)O)[C@@H](O)[C@H](O)[C@H]1O` [ESTRADIOL 17B GLUCURONIDE], the Activity [1] is reported as “substrate []”.

Work on `C[C@]12CC[C@@H]3c4ccc(O)cc4CC[C@H]3[C@@H]1CCC2=O` [ESTRONE] yielded an activity at 200 µM [6] of 56%.

In the case of `CN(Cc1cnc2nc(N)nc(N)c2n1)c1ccc(C(=O)N[C@@H](CCC(=O)O)C(=O)O)cc1` [METHOTREXATE], the Activity [1] is reported as “substrate []”.

In the case of `C[C@]12CC[C@H](OS(=O)(=O)O)CC1=CC[C@@H]1[C@@H]2CC[C@]2(C)C(=O)CC[C@@H]12` [PRASTERONE SULFURIC ACID], the Activity [1] is reported as “substrate []”.

Molecule `CC[C@H](C)C(=O)O[C@H]1C[C@H](O)C=C2C=C[C@H](C)[C@H](CC[C@@H](O)C[C@@H](O)CC(=O)O)[C@H]21` [PRAVASTATIN] has an activity at 200 µM [7] of 76%.

B1: Broad substrate specificity ATP-binding cassette transporter ABCG2 (Homo sapiens) (protein)
chain: MSSSNVEVFIPVSQGNTNGFPATASNDLKAFTEGAVLSFHNICYRVKLKSGFLPCRKPVEKEILSNINGIMKPGLNAILGPTGGGKSSLLDVLAARKDPSGLSGDVLINGAPRPANFKCNSGYVVQDDVVMGTLTVRENLQFSAALRLATTMTNHEKNERINRVIQELGLDKVADSKVGTQFIRGVSGGERKRTSIGMELITDPSILFLDEPTTGLDSSTANAVLLLLKRMSKQGRTIIFSIHQPRYSIFKLFDSLTLLASGRLMFHGPAQEALGYFESAGYHCEAYNNPADFFLDIINGDSTAVALNREEDFKATEIIEPSKQDKPLIEKLAEIYVNSSFYKETKAELHQLSGGEKKKKITVFKEISYTTSFCHQLRWVSKRSFKNLLGNPQASIAQIIVTVVLGLVIGAIYFGLKNDSTGIQNRAGVLFFLTTNQCFSSVSAVELFVVEKKLFIHEYISGYYRVSSYFLGKLLSDLLPMRMLPSIIFTCIVYFMLGLKPKADAFFVMMFTLMMVAYSASSMALAIAAGQSVVSVATLLMTICFVFMMIFSGLLVNLTTIASWLSWLQYFSIPRYGFTALQHNEFLGQNFCPGLNATGNNPCNYATCTGEEYLVKQGIDLSPWGLWKNHVALACMIVIFLTIAYLKLLFLKKYS
B1 gave a Km [8] of 17 µM, a Km [9] of 27 µM and a Km [10] of 13 µM.
